From patent US9227977B2, “Phosphoinositide 3-kinase inhibitors” (RESPIVERT LTD., priority 2013, dated 2016)
Read-outs that look alike come from different tables or passages of the source.

Columns and labels:
PI3K α = PI3K α (Homo sapiens (Human), UniProt P42336); test: PI3K enzyme inhibition assay (HTRF TR-FRET); format: biochemical
From the text: (§1) The PI3K enzymes catalyse the phosphorylation of phosphatidylinositol 4,5-biphosphate (PIP2) to phosphatidylinositol 3,4,5-triphosphate (PIP3) in the presence of ATP and Mg^2+ ions. The PIP3 product can be detected by displacement of biotin-PIP3 from energy transfer complexes consisting of europium labelled anti-GST monoclonal antibody, a GST-tagged Pleckstrin homology (PH) domain, biotinylated PIP3 and streptavidin-allophycocyanin (APC) by the time-resolved fluorescence resonance energy transfer (TR-FRET) (HTRF®PI3K enzyme assay, Millipore). Excitation, at 330 nm, of europium in the complex results in an energy transfer to the APC and a fluorescent emission at 665 nm although europium itself emits at its characteristic wavelength of 620 nm. The PIP3 product formed by PI3K activity displaces biotin-PIP3 from the complex and results in a loss of energy transfer (decreasing signal).
(§2) The compound to be tested was added, at the desired final concentrations, to a mixture of PIP2 substrate and a recombinant PI3K enzyme (either α, β or δ isoforms, ex Millipore, or γ isoform [p110γ+p101 construct], ex United States Biological, Swampscott, Mass.) and the mixture incubated for 2 hr at RT. […] A stopping solution containing biotinylated PIP3 and the detection mix containing the GST tagged GRP1 pleckstrin homology (PH) domain and fluorophores were then added and the mixture was incubated at RT for 15-18 hr, prior to detection in a fluorescence microplate reader (Synergy 4, BioTek UK, Bedfordshire, UK).
(§3) The results were calculated according to the formula: APC signal (emission at 665 nm)/europium signal (emission at 620 nm)×10^4.

PI3K γ = PI3K γ (Homo sapiens (Human), UniProt P48736); test: PI3K enzyme inhibition assay (HTRF TR-FRET); format: biochemical
Chain of PI3K γ (P48736 whole entry, species assumed): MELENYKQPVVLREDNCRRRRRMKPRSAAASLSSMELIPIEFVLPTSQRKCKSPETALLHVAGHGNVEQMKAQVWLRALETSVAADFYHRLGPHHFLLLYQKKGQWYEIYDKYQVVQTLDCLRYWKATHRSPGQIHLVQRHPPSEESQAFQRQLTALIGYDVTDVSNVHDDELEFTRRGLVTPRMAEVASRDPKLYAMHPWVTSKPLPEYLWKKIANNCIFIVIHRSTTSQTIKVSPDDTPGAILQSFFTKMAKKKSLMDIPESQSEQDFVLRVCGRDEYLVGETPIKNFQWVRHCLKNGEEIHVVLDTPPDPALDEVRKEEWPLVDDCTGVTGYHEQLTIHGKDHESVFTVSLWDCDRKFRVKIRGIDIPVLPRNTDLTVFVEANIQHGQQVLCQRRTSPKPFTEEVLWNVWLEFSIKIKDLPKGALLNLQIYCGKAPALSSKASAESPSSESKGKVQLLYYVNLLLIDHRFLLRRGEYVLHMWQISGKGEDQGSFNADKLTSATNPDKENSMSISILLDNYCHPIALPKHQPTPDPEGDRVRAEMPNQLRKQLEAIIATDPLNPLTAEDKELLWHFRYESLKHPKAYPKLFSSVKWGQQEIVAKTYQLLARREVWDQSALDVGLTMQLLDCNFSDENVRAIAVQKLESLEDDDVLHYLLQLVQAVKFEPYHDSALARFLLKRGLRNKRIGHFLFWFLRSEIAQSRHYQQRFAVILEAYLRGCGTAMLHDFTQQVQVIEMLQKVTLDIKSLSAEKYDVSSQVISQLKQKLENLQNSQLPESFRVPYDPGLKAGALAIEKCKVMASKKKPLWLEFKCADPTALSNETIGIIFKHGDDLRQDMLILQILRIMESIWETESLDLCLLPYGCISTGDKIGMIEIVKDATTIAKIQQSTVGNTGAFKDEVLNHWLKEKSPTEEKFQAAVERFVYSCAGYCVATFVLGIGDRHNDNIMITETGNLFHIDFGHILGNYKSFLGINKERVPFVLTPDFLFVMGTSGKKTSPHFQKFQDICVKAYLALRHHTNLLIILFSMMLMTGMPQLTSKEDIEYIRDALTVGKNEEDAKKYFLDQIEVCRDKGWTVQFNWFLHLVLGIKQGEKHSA
Chain of PI3K γ (Q8WYR1 whole entry partner, species assumed): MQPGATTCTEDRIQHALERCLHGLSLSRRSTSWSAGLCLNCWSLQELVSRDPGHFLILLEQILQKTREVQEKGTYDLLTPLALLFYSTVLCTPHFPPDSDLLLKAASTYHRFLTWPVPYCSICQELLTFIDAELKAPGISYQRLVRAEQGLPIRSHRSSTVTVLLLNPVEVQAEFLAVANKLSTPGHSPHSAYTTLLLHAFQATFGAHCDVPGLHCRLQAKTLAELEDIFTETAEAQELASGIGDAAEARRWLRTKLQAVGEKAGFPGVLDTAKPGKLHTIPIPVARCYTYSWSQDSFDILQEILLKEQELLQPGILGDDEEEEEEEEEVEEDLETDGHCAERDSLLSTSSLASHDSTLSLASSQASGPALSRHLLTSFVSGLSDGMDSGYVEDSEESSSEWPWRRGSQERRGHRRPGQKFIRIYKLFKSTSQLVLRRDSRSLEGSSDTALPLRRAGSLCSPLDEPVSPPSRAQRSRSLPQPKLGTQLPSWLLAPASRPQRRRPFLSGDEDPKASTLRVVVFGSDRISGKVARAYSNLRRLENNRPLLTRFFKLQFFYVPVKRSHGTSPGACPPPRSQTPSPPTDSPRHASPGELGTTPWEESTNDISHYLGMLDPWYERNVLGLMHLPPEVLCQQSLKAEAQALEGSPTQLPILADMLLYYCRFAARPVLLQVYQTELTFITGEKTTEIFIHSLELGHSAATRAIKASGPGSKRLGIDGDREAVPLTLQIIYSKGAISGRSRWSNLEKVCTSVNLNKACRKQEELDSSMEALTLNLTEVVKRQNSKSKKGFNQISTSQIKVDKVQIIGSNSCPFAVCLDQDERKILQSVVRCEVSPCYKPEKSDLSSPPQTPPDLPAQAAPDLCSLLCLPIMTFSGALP
From the text: as §1, §2, §3

PI3K δ = PI3K δ (Homo sapiens (Human), UniProt O00329); test: PI3K enzyme inhibition assay (HTRF TR-FRET); format: biochemical
Chain of PI3K δ (O00329 whole entry, species assumed): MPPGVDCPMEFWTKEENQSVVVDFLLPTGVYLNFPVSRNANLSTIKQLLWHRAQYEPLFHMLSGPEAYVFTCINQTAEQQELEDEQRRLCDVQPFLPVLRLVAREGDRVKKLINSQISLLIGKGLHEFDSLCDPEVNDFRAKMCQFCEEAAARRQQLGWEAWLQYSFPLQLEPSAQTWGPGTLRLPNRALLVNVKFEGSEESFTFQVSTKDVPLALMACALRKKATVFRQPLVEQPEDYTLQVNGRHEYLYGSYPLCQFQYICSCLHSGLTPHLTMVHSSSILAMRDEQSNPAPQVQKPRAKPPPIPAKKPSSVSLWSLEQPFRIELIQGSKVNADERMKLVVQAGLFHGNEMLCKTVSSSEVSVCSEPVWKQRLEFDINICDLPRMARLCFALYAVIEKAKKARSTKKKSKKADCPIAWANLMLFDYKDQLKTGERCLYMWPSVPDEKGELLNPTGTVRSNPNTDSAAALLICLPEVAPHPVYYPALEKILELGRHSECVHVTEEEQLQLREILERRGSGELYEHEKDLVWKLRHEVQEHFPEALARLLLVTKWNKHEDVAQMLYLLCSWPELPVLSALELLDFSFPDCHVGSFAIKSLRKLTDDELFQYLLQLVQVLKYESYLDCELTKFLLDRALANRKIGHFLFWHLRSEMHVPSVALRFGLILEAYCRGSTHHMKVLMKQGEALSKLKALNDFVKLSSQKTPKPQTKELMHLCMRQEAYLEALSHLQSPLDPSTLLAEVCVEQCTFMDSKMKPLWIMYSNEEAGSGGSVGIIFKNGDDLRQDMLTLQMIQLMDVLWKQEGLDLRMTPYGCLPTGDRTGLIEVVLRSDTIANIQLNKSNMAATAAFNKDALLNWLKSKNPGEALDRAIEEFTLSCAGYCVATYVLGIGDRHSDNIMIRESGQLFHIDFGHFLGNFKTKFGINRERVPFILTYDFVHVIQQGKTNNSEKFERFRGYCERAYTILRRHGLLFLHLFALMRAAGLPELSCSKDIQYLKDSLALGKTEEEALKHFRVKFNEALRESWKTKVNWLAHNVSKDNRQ
Chain of PI3K δ (P27986 whole entry partner, species assumed): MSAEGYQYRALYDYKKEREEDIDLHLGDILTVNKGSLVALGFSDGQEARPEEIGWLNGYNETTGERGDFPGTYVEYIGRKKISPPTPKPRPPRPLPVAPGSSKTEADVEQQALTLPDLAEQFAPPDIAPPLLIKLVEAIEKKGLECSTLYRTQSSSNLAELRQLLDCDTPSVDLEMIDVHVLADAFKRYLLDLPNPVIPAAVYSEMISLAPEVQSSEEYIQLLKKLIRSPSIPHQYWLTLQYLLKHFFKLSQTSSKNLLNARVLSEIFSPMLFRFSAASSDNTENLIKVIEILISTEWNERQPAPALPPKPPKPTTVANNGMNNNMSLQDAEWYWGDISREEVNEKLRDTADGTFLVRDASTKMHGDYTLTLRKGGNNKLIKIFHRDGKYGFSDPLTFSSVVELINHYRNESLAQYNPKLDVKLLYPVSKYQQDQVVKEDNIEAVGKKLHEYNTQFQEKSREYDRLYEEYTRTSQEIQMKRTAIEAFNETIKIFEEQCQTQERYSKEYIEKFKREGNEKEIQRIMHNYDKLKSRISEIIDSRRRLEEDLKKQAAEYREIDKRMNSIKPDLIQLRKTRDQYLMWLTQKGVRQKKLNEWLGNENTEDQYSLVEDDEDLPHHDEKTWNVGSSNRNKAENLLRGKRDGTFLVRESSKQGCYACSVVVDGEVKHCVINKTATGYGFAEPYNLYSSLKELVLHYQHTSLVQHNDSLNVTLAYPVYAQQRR
From the text: as §1, §2, §3

PI3K β = PI3K β (Homo sapiens (Human), UniProt P42338); test: PI3K enzyme inhibition assay (HTRF TR-FRET); format: biochemical; conditions: read-out: PI3 Kinase Inhibition IC50 value at state isozyme, β
From the text: as §1
The compound to be tested was added, at the desired final concentrations, to a mixture of PIP2 substrate and a recombinant PI3K enzyme (either α, β or δ isoforms, ex Millipore, or γ isoform [p110γ+p101 construct], ex United States Biological, Swampscott, Mass.) and the mixture incubated for 2 hr at RT. Following this incubation period, ATP (10 μM) was added to the enzyme/compound/PIP2 substrate mixture and the resulting mixture was incubated for a further 30 min at RT. A stopping solution containing biotinylated PIP3 and the detection mix containing the GST tagged GRP1 pleckstrin homology (PH) domain and fluorophores were then added and the mixture was incubated at RT for 15-18 hr, prior to detection in a fluorescence microplate reader (Synergy 4, BioTek UK, Bedfordshire, UK).
The results were calculated according to the formula: APC signal (emission at 665 nm)/europium signal (emission at 620 nm)×10^4. The percentage inhibition of each reaction was calculated relative to DMSO treated control, and the 50% inhibitory concentration (IC50 value) then calculated from the concentration-response curve.

d-U937 cells = test: MTT assay, cell viability; format: cell-based, human; conditions: 10 μg/mL
Description: PMA-differentiated U937 cells were pre-incubated with test compound (10 μg/mL) or vehicle for 4 hr in 5% FCS or 10% FCS for 24 hr. The supernatant was replaced with new media (200 μL) and MTT stock solution (10 μL, 5 mg/mL) was added to each well. After 1 hr incubation, the media were removed, 200 μL of DMSO was added to each well and the plates were shaken lightly for 1 hr prior to reading the absorbance at 550 nm. The percentage loss of cell viability was calculated for each well relative to vehicle (0.5% DMSO)-treatment.

[1] = test system: cigarette smoke-induced cell accumulation and biomarkers in murine BALF; test: Cigarette smoke model; format: in vivo, mouse; conditions: 0.3-10 mg/kg, p.o.
[2] = test system: cigarette smoke-induced cell accumulation and biomarkers in murine BALF; test: Cigarette smoke model; format: in vivo, mouse; conditions: dose used for co-administration
Description: A/J mice (males, 5 weeks old) were exposed to cigarette smoke (4% cigarette smoke, diluted with compressed air) for 30 min/day for 11 days using a Tobacco Smoke Inhalation Experiment System for small animals (Model SIS-CS; Sibata Scientific Technology, Tokyo, Japan). Test substances were administered once daily for 3 days after the final cigarette smoke exposure (intra-nasal dose comprising 35 μL of solution in 50% DMSO/isotonic saline).
At 12 hr after administration of the last dose, animals were anesthetized, the trachea was cannulated and bronchial alveolar lavage (BAL) was carried out by the instillation into and then withdawal from the lungs, of PBS (100 mL/kg). Total cell numbers in the BALF samples were measured using a haemocytometer under a phase-contrast microscope. The proportions of alveolar macrophages and neutrophils were determined by FACS analysis using anti-mouse MOMA2-FITC (macrophage) or anti-mouse 7/4 (neutrophil).
Cells were suspended in PBS and were incubated with anti-MOMA2-FITC (2 μg/mL, Catalogue no SM065F, Acris Antibodies GmbH, Herford, Germany) or anti-7/4-FITC (2 μg/mL, Catalogue no CL050F, Acris Antibodies GmbH, Herford, Germany) for 30 min at 30° C., and also counterstained with propidium iodide (2 μg/mL) to allow exclusion of necrotic cells. The cells were washed with PBS, and transferred to FACS tubes. Samples was set in a flow cytometer (ALTRA II; Beckman Coulter Japan, Tokyo, Japan), and a single-parameter FL2 [PMT2] (FITC) histogram with log x-axis was plotted to illustrate relative intensity of FITC.
Data files are stored for subsequent analysis using Kaluza analysis software (ver. 1.2) to calculate the proportion of each cell type. The levels of CXCL1(KC), MCP1, TNFα, IL-17 or osteopontin in BALF were determined using Quentikine® mouse KC, MCP1, TNFα, IL-17 or osteopontin ELISA kit (R&D systems, Inc., Minneapolis, Minn., USA). The presence of malondialdehyde was measured using OxiSelect® TBARS Assay Kit (MDA Quantitation; Cell Biolabs Inc, San Diego, Calif., USA).

Chain of PI3K α (P42336 whole entry, species assumed): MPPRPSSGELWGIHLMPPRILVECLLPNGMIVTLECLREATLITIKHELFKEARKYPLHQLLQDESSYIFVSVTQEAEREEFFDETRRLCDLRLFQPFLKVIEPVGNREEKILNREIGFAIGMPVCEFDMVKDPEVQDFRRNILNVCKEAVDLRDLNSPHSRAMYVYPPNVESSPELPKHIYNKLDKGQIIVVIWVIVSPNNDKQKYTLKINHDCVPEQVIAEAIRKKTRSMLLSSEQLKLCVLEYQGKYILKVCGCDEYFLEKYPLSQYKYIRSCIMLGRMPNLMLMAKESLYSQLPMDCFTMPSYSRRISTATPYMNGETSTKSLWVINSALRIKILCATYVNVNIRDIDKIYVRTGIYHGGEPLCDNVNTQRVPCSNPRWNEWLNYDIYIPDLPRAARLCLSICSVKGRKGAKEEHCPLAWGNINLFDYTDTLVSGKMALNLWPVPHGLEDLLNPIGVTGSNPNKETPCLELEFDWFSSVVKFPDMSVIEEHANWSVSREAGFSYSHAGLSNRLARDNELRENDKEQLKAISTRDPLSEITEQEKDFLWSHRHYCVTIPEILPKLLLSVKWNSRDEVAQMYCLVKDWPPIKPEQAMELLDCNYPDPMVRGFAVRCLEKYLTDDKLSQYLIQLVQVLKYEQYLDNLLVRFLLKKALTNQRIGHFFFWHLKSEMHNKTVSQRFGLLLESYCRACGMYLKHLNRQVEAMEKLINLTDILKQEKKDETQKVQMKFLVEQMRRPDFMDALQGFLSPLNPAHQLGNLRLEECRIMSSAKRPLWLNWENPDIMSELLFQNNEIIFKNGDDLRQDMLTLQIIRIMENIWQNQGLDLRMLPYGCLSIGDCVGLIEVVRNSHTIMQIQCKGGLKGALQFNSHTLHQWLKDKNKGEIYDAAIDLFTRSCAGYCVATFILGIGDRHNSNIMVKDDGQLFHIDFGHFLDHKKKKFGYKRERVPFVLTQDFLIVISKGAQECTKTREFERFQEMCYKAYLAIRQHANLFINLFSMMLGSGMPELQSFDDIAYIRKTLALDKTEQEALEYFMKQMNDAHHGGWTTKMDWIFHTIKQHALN
Chain of PI3K α (P27986 whole entry partner, species assumed): as the sequence (P27986 whole entry partner, species assumed) above

In the case of `Nc1ncnc2c1c(-c1cc(O)cc(F)c1)nn2Cc1nc2cccc(C#CCOCCOCCO)c2c(=O)n1Cc1ccccc1C(F)(F)F` [Compound (Ia), 2-((4-Amino-3-(3-fluoro-5-hydroxyphenyl)-1H-pyrazolo[3,4-d]pyrimidin-1-yl)methyl)-5-(3-(2-(2-hydroxyethoxy)ethoxy)prop-1-yn-1-yl)-3-(2-(trifluoromethyl)benzyl)quinazolin-4(3H)-one], the IC50 (PI3K α; read-out: PI3 Kinase Inhibition IC50 value at state isozyme, α) is reported as over 14200 nM, the “inhibition of PI3K γ compared with compound of formula (I) (in words)” value (PI3K γ) is reported as “significantly less active” and the IC50 (PI3K γ; read-out: PI3 Kinase Inhibition IC50 value at state isozyme, γ) is reported as 577 nM. The “inhibition of PI3K δ compared with compound of formula (I) (in words)” value (PI3K δ) was “significantly less active”, the IC50 (PI3K δ; read-out: PI3 Kinase Inhibition IC50 value at state isozyme, δ) was 17 nM and the IC50 (PI3K β) was over 14200 nM. For the same compound, the “Cell Viability MTT Assay in d-U937 cells at 4 hr” value (d-U937 cells; 4 hr) was “−ve (−ve indicates a value of <30% inhibition at 10 μg/mL)” and the “Cell Viability MTT Assay in d-U937 cells at 24 hr” value (d-U937 cells; 24 hr) was “−ve (−ve indicates a value of <30% inhibition at 10 μg/mL)”.

`COCCOCCOCC#Cc1cccc2nc(Cn3nc(-c4cccc(O)c4)c4c(N)ncnc43)n(Cc3ccccc3F)c(=O)c12` [Example 50, 2-((4-amino-3-(3-hydroxyphenyl)-1H-pyrazolo[3,4-d]pyrimidin-1-yl)methyl)-3-(2-fluorobenzyl)-5-(3-(2-(2-methoxyethoxy)ethoxy)prop-1-ynyl) quinazolin-4(3H)-one, reference compound] was tested, and the IC50 (PI3K α; read-out: IC50 Values for PI3K inhibition at isozyme indicated, PI3K α) was 653 nM, the IC50 (PI3K γ; read-out: IC50 Values for PI3K inhibition at isozyme indicated, PI3K γ) was 120 nM and the IC50 (PI3K δ; read-out: IC50 Values for PI3K inhibition at isozyme indicated, PI3K δ) was 5.7 nM.

With `C[C@@H]1C[C@H]2[C@@H]3CCC4=CC(=O)C=C[C@]4(C)[C@@]3(F)[C@@H](O)C[C@]2(C)[C@@]1(O)C(=O)CO` [dexamethasone] the “activity in cigarette smoke model (in words)” value [1] was “inactive”.

With `CCC(=O)O[C@]1(C(=O)SCF)[C@H](C)C[C@H]2[C@@H]3C[C@H](F)C4=CC(=O)C=C[C@]4(C)[C@@]3(F)[C@@H](O)C[C@@]21C` [fluticasone propionate, reference compound] the “effect as monotherapy in cigarette smoke model (in words)” value [2] was “lacks any significant effect”.
